Assay results reported in article PMC6832524, “A Nature-Inspired Design Yields a New Class of Steroids Against Trypanosomatids” (Molecules, 2019).
Like-named read-outs stand apart in the source and are kept apart here.

Experiments:
[1] = system: J774.1 murine macrophages; assay: nonspecific cytotoxicity on mammalian cells, MTT; type: cell-based; conditions: for IC50: Mus musculus, J774.1, 48 h, MTT, read-out: IC50 ± SD (µM) Murine Macrophages; for SI J774.1/T. cruzi: ratio IC50 murine macrophages / IC50 T. cruzi epimastigotes; for SI J774.1/L. amazonensis: ratio IC50 murine macrophages / IC50 L. amazonensis promastigotes
[2] = system: T. cruzi blood trypomastigotes of the Y strain; assay: in vivo anti-T. cruzi study (acute Chagas model); set-up: species or system Trypanosoma cruzi; conditions: BALB/c mice, 50 mg/kg/day oral for 14 days; for Number of Parasites (Chagas): peak of parasitemia; for % of Reduction (Chagas): reduction of parasitemia vs control
[3] = system: T. cruzi epimastigotes, Tulahuen 2 strain (genotype TcVI); assay: in vitro anti-T. cruzi activity, epimastigote growth (absorbance 600 nm); type: cell-based, Trypanosoma cruzi
Method: Control parasites were cultivated in 0.4% DMSO. Each concentration of the compound was evaluated in duplicate.

[4] = system: L. amazonensis (promastigotes); assay: in vitro anti-Leishmania activity, promastigotes, resazurin; type: cell-based; conditions: maximum dose tested 25 µM, read-out: IC50 ± %SD (µM) L. amazonensis
[5] = system: L. infantum (MHOM/BR/2002/LPC-RPV) promastigotes; assay: as above; type: cell-based, Leishmania infantum
[6] = system: L. infantum .uy (parasites isolated from two dogs in the first Leishmaniasis outbreak in Uruguay); assay: in vitro activity against L. infantum isolated from dogs in Uruguay; type: cell-based, Leishmania infantum; conditions: for IC50: Leishmania infantum, read-out: IC50 ± %SD (µM) L. infantum .uy
Method: Compounds were dissolved in dimethylsulfoxide (DMSO).
For assessing the amastigote form of all Leishmania strains were cultured in the RPMI described above. Parasites were seeded at 1 × 10^6 cells/mL and at each time point counted at least five times to obtain a growth curve. […] Control conditions of parasites without drug (100% growth) and medium without parasites were included. After 72 h at 28 °C parasite viability was determined by the resazurin method described. Infection with L. infantum. THP-1 monocytes (ATCC®TIB-202™) were grown following ATCC recommendations and seeded at 30,000 cells/well onto 18-mm round glass coverslips in 12 wells. For stimulation cells were incubated with 100 nM of PMA for 48 h, PMA was washed and cells left with growth media for 24 h more after incubation with parasites. 30,000 parasites/well were added and left to interact. After 48 h, coverslips were washed with PBS, fixed with 95% (v/v) ethanol, and stained with Fluoroshield™ with DAPI (Sigma). Infectivity was assessed considering invasion and replication capacity counting infected cells and parasites per infected cell, respectively. Infectivity index calculation = (% of infected cells X (amastigotes per cell))/number of total counted cells. Image acquisition was made with a Leica TCS-SP5 laser scanning confocal microscope (Leica Microsystems GmbH, Wetzlar, Germany) using the LASAF v.2 software (Leica Microsystems, Wetzlar, Germany) and observed using a 356 nm laser excitation line and an emission bandwidth from 461 nm under a 20× water immersion objective. Further image analysis, including quantitation and processing of figures were made using Fiji (http://fiji.sc/).

[7] = system: promastigotes L. braziliensis/ L. amazonensis; assay: in vitro anti-Leishmania activity, promastigotes (Table 1S); type: cell-based; conditions: read-out: IC50 ± %SD (µM) promastigotes L. braziliensis/ L. amazonensis
[8] = system: L. infantum amastigotes in human macrophages (THP-1); assay: human macrophages infected with L. infantum (amastigotes), infectivity index; type: cell-based; conditions: Leishmania infantum, two strains of L. infantum (reference strain and isolated from dogs)
[9] = system: primary culture of macrophages from mice bone marrow; assay: cytotoxicity on primary culture of macrophages, MTT; type: cell-based; conditions: 25 µM, 48 h, compared with J774.1
[10] = system: L. amazonensis (IFLA/BR/1967/PH8); assay: in vivo anti-Leishmania study in cutaneous mice model; set-up: species or system Leishmania amazonensis; conditions: BALB/c mice, 50 mg/kg oral
[11] = liver fraction stability study (TLC); type: in vitro ADME; conditions: rat liver fractions, 400 µM, 37 °C, 4 h
solubility (qualitative) = type: physicochemical; conditions: for solubility in the conditions of the mammalian cell assay, in words: maximum dose tested 25 µM
[12] = in vivo acute oral toxicity (OECD up and down); conditions: male, B6D2F1, mouse, 2000 mg/kg
Method: Briefly, healthy young adult male B6D2F1 mice (30 days old, 25 to 30 g) were used in this study. Initially, the compound was dissolved in the vehicle described above (3.4 section) and was administered at 2000 mg/kg, by orogastric cannula, to one animal. The animal was fasted, maintained, and observed for 48 h. If the mouse survives, another animal receives the same dose, and 48 h later, a third animal. If there are no toxicity signs the experiment is finished 14 days after administration, with the euthanasia of the animals according to the OECD guidelines. Observations of the general status of the organs were performed after sacrifice.

[13] = system: L. infantum, L. braziliensis, L. amazonensis promastigotes and T. cruzi epimastigotes; assay: phenotypic screening against parasites in vitro (overall statements)
Method: For the in vitro anti-T. cruzi activity, we used epimastigotes of the Tulahuen 2 strain (genotype TcVI) grown in an axenic milieu (BHI-Tryptose). Cells from a 5–7-days-old culture were inoculated in fresh culture milieu to give an initial concentration of 10^6 cells/mL. The absorbance at 600 nm of the cells in culture was measured every day. […] Control parasites were cultivated in 0.4% DMSO. Each concentration of the compound was evaluated in duplicate. At five days, the absorbance of the culture was measured and compared to the control and the IC50 values calculated for each compound using OriginLab8.5® sigmoidal regression.

[14] = system: L. infantum .uy (parasites isolated from two dogs in the first Leishmaniasis outbreak in Uruguay); assay: in vitro activity against L. infantum isolated from dogs in Uruguay; type: cell-based, Leishmania infantum; conditions: read-out: IC50± %SD (µM) promastigotes L. infantum uy*p/c
[15] = Trypanosoma cruzi, TULAHUEN, epimastigotes, maximum dose tested 25 µM, read-out: IC50 ± %SD (µM) T. cruzi
[16] = Leishmania infantum, promastigotes, maximum dose tested 25 µM, read-out: IC50 ± %SD (µM) L. infantum
[17] = Trypanosoma cruzi, TULAHUEN, Table 1S, read-out: IC50 ± %SD (µM) epimastigotes T. cruzi
[18] = Table 1S, read-out: IC50 ± %SD (µM) epimastigotes T. cruzi
[19] = Table 1S, read-out: IC50 ± %SD (µM) promastigotes L. infantum
[20] = Table 1S, one value printed for p/c

O=C(Cn1ccnc1[N+](=O)[O-])NCc1ccccc1 [Benznidazole, reference compound]
IC50 [1]: 400 ± 4 µM
SI J774.1/T. cruzi [1]: 57
% of Survivals (Chagas) [2]: 100%
Number of Parasites (Chagas) [2]: (0.01 ± 0.01) × 10^6 per mL blood
% of Reduction (Chagas) [2]: 96%

C[C@]12CC[C@H]3[C@@H](CC=C4CC(O)CC[C@@]43C)[C@@H]1CC[C@@H]2C(=O)/C=C/c1ccccc1Cl (stereo partly shown) [Compound 2]
IC50 [3, 15]: 12 ± 3 µM
IC50 [4]: 23 ± 5 µM
activity against Leishmania infantum from Fiocruz collection, in words [5]: active
IC50 [5, 16]: > 25 µM
active against the strains isolated from Uruguayan dogs, in words [6]: not
IC50 [6]: > 25 µM
IC50 [1]: 100 ± 10 µM
SI J774.1/L. amazonensis [1]: 4
SI J774.1/T. cruzi [1]: 8
IC50 [7]: 23 ± 5 µM
melting point: 149 to 151 °C

C/C(=N\NC(N)=S)[C@H]1CC[C@H]2[C@@H]3CC=C4CC(O)CC[C@]4(C)[C@H]3CC[C@]12C (stereo partly drawn) [Compound 8, 1-(3β-Hydroxy-pregn-5-ene-20E-ylidene)thiosemicarbazone]
IC50 [3, 15]: 1.2 ± 0.3 µM
IC50 [4]: < 22 µM
IC50 [5, 16]: 0.2 ± 0.1 µM
IC50 [6]: 0.2 ± 0.1 µM
IC50 [8]: < 0.2 µM
IC50 [1]: 50 ± 3 µM
SI J774.1/L. amazonensis [1]: >2
SI J774.1/L. infantum ([1]; ratio IC50 murine macrophages / IC50 L. infantum promastigotes): 250
SI J774.1/T. cruzi [1]: 42
cytotoxicity on primary culture of macrophages, in words [9]: the same results were obtained
% of Survivals (Chagas) [2]: 100%
Number of Parasites (Chagas) [2]: (0.14 ± 0.03) × 10^6 per mL blood
% of Reduction (Chagas) [2]: 62%
% of Reduction (Leishmaniasis) [10]: 27%
% of Survivals (Leishmaniasis) [10]: 100%
Number of Parasites (Leishmaniasis) ([10]; parasites in the lesion at the end of the experiment): (21 ± 4) × 10^6
metabolic stability in cytosolic and microsomal liver fraction [11]: stable
solubility in water, in words (solubility (qualitative)): poor solubility in water
IC50 [7]: < 22 µM
LD50 at 14 days [12]: > 2000 mg/kg
IC50 ([13]; Trypanosoma cruzi, read-out: IC50 in vitro (abstract)): 0.2 µM
times more active than Miltefosine in vitro ([13]; against Leishmania): five times more active
times more active than Nfx and Bnz in vitro ([13]; against T. cruzi): 35
antiparasitic activity (active: IC50<25 µM), in words ([13]; all parasites/strains tested, maximum dose 25 µM): consistently active against all strains

C=CCNC(=S)N/N=C(\C)[C@H]1CC[C@H]2[C@@H]3CC=C4CC(O)CC[C@]4(C)[C@H]3CC[C@]12C (stereo partly drawn) [Compound 9, 1-(3β-Hydroxy-pregn-5-ene-20E-ylidene)-4-Allylthiosemicarbazone]
IC50 [3, 17]: 7.8 µM
IC50 [3, 15]: 8 ± 2 µM
activity against Leishmania infantum from Fiocruz collection, in words [5]: active
IC50 [5, 16]: > 25 µM
active against the strains isolated from Uruguayan dogs, in words [6]: not
IC50 [6]: > 25 µM
IC50 [1]: 25 ± 2 µM
SI J774.1/T. cruzi [1]: 3
solubility in the conditions of the mammalian cell assay, in words (solubility (qualitative)): poorly soluble
melting point: 229 to 233 °C

C/C(=N\NC(=S)Nc1ccccc1)[C@H]1CC[C@H]2[C@@H]3CC=C4CC(O)CC[C@]4(C)[C@H]3CC[C@]12C (stereo partly drawn) [Compound 10, 1-(3β-Hydroxy-pregn-5-ene-20E-ylidene)-4-phenylthiosemicarbazone]
IC50 [3, 15]: 25 ± 3 µM
IC50 [5, 16]: > 25 µM
IC50 [6]: > 25 µM
IC50 [1]: 25 ± 5 µM
SI J774.1/T. cruzi [1]: 1
solubility in the conditions of the mammalian cell assay, in words (solubility (qualitative)): poorly soluble
melting point: 215 to 217 °C

CSc1ccc(/C=C/C(=O)[C@H]2CCC3C4CC=C5C[C@@H](O)CC[C@]5(C)C4CC[C@@]32C)cc1 (stereo partly shown) [Compound 15]
IC50 [3, 18]: > 25 µM
IC50 [5, 19]: > 25 µM
IC50 [7]: > 25 µM
IC50 [14, 20]: > 25 µM

CC(/C=C/C(=O)[C@H]1CC[C@H]2[C@@H]3CC=C4CC(O)CC[C@]4(C)[C@H]3CC[C@]12C)=C\c1ccco1 (stereo partly drawn) [Compound 16, (2E,4E)-5-(furan-2-yl)-1-((8S,9S,10R,13S,14S,17S)-3-hydroxy-10,13-dimethyl-2,3,4,7,8,9,10,11,12,13,14,15,16,17-tetradecahydro-1H-cyclopenta[a]phenanthren-17-yl)-4-methylpenta-2,4-dien-1-one]
IC50 [3, 17]: > 25 µM
IC50 ([5]; Leishmania infantum, Table 1S, read-out: IC50 ± %SD (µM) promastigotes L. infantum): > 25 µM
IC50 [7]: 23 ± 3 µM
melting point: 110 to 113 °C
IC50 ([14]; Leishmania infantum): > 25 µM

C[C@]12CC[C@H]3[C@@H](CC=C4CC(O)CC[C@@]43C)[C@@H]1CC[C@@H]2C(=O)/C=C/C=C/c1cccs1 (stereo partly drawn) [Compound 17, (2E,4E)-5-(thiofen-2-yl)-1-((8S,9S,10R,13S,14S,17S)-3-hydroxy-10,13-dimethyl-2,3,4,7,8,9,10,11,12,13,14,15,16,17-tetradecahydro-1H-cyclopenta[a]phenanthren-17-yl)penta-2,4-dien-1-one]
IC50 [3, 18]: > 25 µM
IC50 [5, 19]: > 25 µM
IC50 [7]: > 25 µM
IC50 [14, 20]: > 25 µM
